# ChEMBL document CHEMBL3797052 (Eur J Med Chem, 2016)
# Assays:
# [1] = Antiproliferative activity against human HOP92 cells assessed as cell growth at 10^-7 M after 48 hrs by sulforhodamine B assay; assay type: functional; conditions: HOP-92, 48 h, read-out: Activity
# A549 [2] = assay: Antiproliferative activity against human A549/ATCC cells assessed as cell growth at 10^-4 M after 48 hrs by sulforhodamine B assay; assay type: functional; conditions: A549, 48 h, read-out: Activity
# [3] = Antiproliferative activity against human HCT116 cells assessed as cell growth at 10^-4 M after 48 hrs by sulforhodamine B assay; assay type: functional; conditions: HCT-116, 48 h, read-out: Activity
# SN12C = assay: Antiproliferative activity against human SN12C cells assessed as cell growth at 10^-6 M after 48 hrs by sulforhodamine B assay; assay type: functional; conditions: read-out: Activity
# Malme-3M [4] = assay: Antiproliferative activity against human MALME-3M cells assessed as growth inhibition after 48 hrs by sulforhodamine B assay; assay type: functional
# [5] = Antiproliferative activity against human SKOV3 cells assessed as cell growth at 10^-8 M after 48 hrs by sulforhodamine B assay; assay type: functional; conditions: SK-OV-3, 48 h, read-out: Activity
# [6] = Antiproliferative activity against human TK10 cells assessed as cell growth at 10^-7 M after 48 hrs by sulforhodamine B assay; assay type: functional; conditions: TK-10, 48 h, read-out: Activity
# KM12 = assay: Antiproliferative activity against human KM12 cells assessed as cell growth at 10^-7 M after 48 hrs by sulforhodamine B assay; assay type: functional; conditions: KM12, 48 h, read-out: Activity
# A498 [7] = assay: Antiproliferative activity against human A498 cells assessed as cell growth at 10^-7 M after 48 hrs by sulforhodamine B assay; assay type: functional; conditions: A498, 48 h, read-out: Activity
# [8] = Antiproliferative activity against human OVCAR5 cells assessed as cell growth at 10^-7 M after 48 hrs by sulforhodamine B assay; assay type: functional; conditions: OVCAR-5, 48 h, read-out: Activity
# [9] = biological target: Serine/threonine-protein kinase B-raf (Homo sapiens, UniProt P15056, V600E); assay: Inhibition of BRAF V600E mutant (unknown origin) measured after 40 mins by scintillation counting
# Sequence of Serine/threonine-protein kinase B-raf (P15056 2-766 V600E limits assumed): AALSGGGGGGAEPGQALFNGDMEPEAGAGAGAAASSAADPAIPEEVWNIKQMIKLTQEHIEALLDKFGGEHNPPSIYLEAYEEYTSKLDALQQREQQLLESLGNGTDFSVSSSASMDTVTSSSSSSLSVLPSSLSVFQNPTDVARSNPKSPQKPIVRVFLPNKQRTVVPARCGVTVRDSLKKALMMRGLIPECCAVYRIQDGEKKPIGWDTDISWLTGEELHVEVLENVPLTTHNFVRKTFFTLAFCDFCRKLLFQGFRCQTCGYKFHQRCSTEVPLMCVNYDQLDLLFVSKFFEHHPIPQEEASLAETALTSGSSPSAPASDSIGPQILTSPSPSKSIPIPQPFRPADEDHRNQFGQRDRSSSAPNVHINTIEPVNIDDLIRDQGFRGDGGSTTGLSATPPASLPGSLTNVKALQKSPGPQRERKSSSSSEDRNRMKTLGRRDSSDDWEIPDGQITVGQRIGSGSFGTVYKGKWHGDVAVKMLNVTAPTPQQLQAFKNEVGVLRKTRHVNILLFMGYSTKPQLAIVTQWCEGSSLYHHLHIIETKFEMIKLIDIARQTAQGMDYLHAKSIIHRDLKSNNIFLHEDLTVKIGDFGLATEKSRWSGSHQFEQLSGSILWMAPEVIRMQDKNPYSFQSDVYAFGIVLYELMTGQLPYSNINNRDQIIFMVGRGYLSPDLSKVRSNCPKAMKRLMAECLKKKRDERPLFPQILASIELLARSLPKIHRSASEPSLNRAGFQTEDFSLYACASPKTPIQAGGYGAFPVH
# A549 [10] = assay: Antiproliferative activity against human A549/ATCC cells assessed as cell growth at 10^-6 M after 48 hrs by sulforhodamine B assay; assay type: functional; conditions: A549, 48 h, read-out: Activity
# A549 [11] = assay: Antiproliferative activity against human A549/ATCC cells assessed as cell growth at 10^-8 M after 48 hrs by sulforhodamine B assay; assay type: functional; conditions: A549, 48 h, read-out: Activity
# [12] = Antiproliferative activity against human SF268 cells assessed as cell growth at 10^-7 M after 48 hrs by sulforhodamine B assay; assay type: functional; conditions: SF-268, 48 h, read-out: Activity
# [13] = Antiproliferative activity against human RXF393 cells assessed as cell growth at 10^-7 M after 48 hrs by sulforhodamine B assay; assay type: functional; conditions: RXF 393, 48 h, read-out: Activity
# SK-MEL-28 = assay: Antiproliferative activity against human SK-MEL-28 cells assessed as cell growth at 10^-8 M after 48 hrs by sulforhodamine B assay; assay type: functional; conditions: SK-MEL-28, 48 h, read-out: Activity
# [14] = Antiproliferative activity against human HOP92 cells assessed as cell growth at 10^-6 M after 48 hrs by sulforhodamine B assay; assay type: functional; conditions: HOP-92, 48 h, read-out: Activity
# Malme-3M [15] = assay: Antiproliferative activity against human MALME-3M cells assessed as cell growth at 10^-7 M after 48 hrs by sulforhodamine B assay; assay type: functional; conditions: read-out: Activity
# A498 [16] = assay: Antiproliferative activity against human A498 cells assessed as cell growth at 10^-4 M after 48 hrs by sulforhodamine B assay; assay type: functional; conditions: A498, 48 h, read-out: Activity
# [17] = Antiproliferative activity against human SF539 cells assessed as cell growth at 10^-6 M after 48 hrs by sulforhodamine B assay; assay type: functional; conditions: SF-539, 48 h, read-out: Activity
# NCI-H322M [18] = assay: Antiproliferative activity against human NCI-H322M cells assessed as cell growth at 10^-8 M after 48 hrs by sulforhodamine B assay; assay type: functional; conditions: read-out: Activity
# NCI-H23 = assay: Antiproliferative activity against human NCI-H23 cells assessed as cell growth at 10^-4 M after 48 hrs by sulforhodamine B assay; assay type: functional; conditions: NCI-H23, 48 h, read-out: Activity
# [19] = Antiproliferative activity against human DU145 cells assessed as cell growth at 10^-8 M after 48 hrs by sulforhodamine B assay; assay type: functional; conditions: DU-145, 48 h, read-out: Activity
# U-251 = assay: Antiproliferative activity against human U251 cells assessed as growth inhibition after 48 hrs by sulforhodamine B assay; assay type: functional; conditions: U-251, 48 h
# NCI-H322M [20] = assay: Antiproliferative activity against human NCI-H322M cells assessed as cell growth at 10^-4 M after 48 hrs by sulforhodamine B assay; assay type: functional; conditions: read-out: Activity
# [21] = Antiproliferative activity against human LOXIMVI cells assessed as growth inhibition after 48 hrs by sulforhodamine B assay; assay type: functional; conditions: LOX IMVI
# SR = assay: Antiproliferative activity against human SR cells assessed as cell growth at 10^-6 M after 48 hrs by sulforhodamine B assay; assay type: functional; conditions: read-out: Activity
# NCI-H460 = assay: Antiproliferative activity against human NCI-H460 cells assessed as cell growth at 10^-4 M after 48 hrs by sulforhodamine B assay; assay type: functional; conditions: NCI-H460, 48 h, read-out: Activity
# [22] = Antiproliferative activity against human PC3 cells assessed as cell growth at 10^-4 M after 48 hrs by sulforhodamine B assay; assay type: functional; conditions: PC-3, 48 h, read-out: Activity
# SK-MEL-2 = assay: Antiproliferative activity against human SK-MEL-2 cells assessed as growth inhibition after 48 hrs by sulforhodamine B assay; assay type: functional; conditions: SK-MEL-2, 48 h
# SK-MEL-5 = assay: Antiproliferative activity against human SK-MEL-5 cells assessed as cell growth at 10^-4 M after 48 hrs by sulforhodamine B assay; assay type: functional; conditions: SK-MEL-5, 48 h, read-out: Activity
# [23] = Antiproliferative activity against human MOLT4 cells assessed as growth inhibition after 48 hrs by sulforhodamine B assay; assay type: functional; conditions: MOLT-4, 48 h
# [24] = Antiproliferative activity against human LOXIMVI cells assessed as cell growth at 10^-8 M after 48 hrs by sulforhodamine B assay; assay type: functional; conditions: LOX IMVI, read-out: Activity
# [25] = Antiproliferative activity against human RXF393 cells assessed as growth inhibition after 48 hrs by sulforhodamine B assay; assay type: functional; conditions: RXF 393, 48 h
# [26] = Antiproliferative activity against human OVCAR4 cells assessed as cell growth at 10^-7 M after 48 hrs by sulforhodamine B assay; assay type: functional; conditions: OVCAR-4, 48 h, read-out: Activity
# [27] = Antiproliferative activity against human UO31 cells assessed as cell growth at 10^-4 M after 48 hrs by sulforhodamine B assay; assay type: functional; conditions: UO-31, 48 h, read-out: Activity
# K562 = assay: Antiproliferative activity against human K562 cells assessed as growth inhibition after 48 hrs by sulforhodamine B assay; assay type: functional; conditions: K562, 48 h
# [28] = read-out: LC50 (the source's name)
structure (smiles),measurement,setting,value
CNC(=O)c1cc(Oc2ccc3nc(NC(=O)Nc4ccc(Cl)c(C(F)(F)F)c4)sc3c2)ccn1,growth at 0.1 µM,[1],80%
same,growth at 100 µM,A549 [2],9%
same,growth at 100 µM,[3],-19%
same,growth at 1 µM,SN12C,81%
same,GI50,Malme-3M [4],1.61 µM
same,TGI,Malme-3M [4],3.63 µM
same,growth at 0.01 µM,[5],97%
same,growth at 0.1 µM,[6],105%
same,growth at 0.1 µM,KM12,102%
same,growth at 0.1 µM,A498 [7],97%
same,growth at 0.1 µM,[8],95%
same,IC50,[9],0.131 µM
same,growth at 1 µM,A549 [10],90%
same,growth at 0.01 µM,A549 [11],104%
same,growth at 0.1 µM,[12],101%
same,growth at 0.1 µM,[13],90%
same,growth at 0.01 µM,SK-MEL-28,92%
same,growth at 1 µM,[14],57%
same,growth at 0.1 µM,Malme-3M [15],98%
same,growth at 100 µM,A498 [16],-40%
same,growth at 1 µM,[17],87%
same,growth at 0.01 µM,NCI-H322M [18],101%
same,growth at 100 µM,NCI-H23,-40%
same,growth at 0.01 µM,[19],109%
same,GI50,U-251,1.79 µM
same,TGI,U-251,3.75 µM
same,growth at 100 µM,NCI-H322M [20],27%
same,GI50,[21],2.68 µM
same,TGI,[21],> 100 µM
same,CC50,[21]; [28],> 100 µM
same,growth at 1 µM,SR,15%
same,growth at 100 µM,NCI-H460,10%
same,growth at 100 µM,[22],7%
same,GI50,SK-MEL-2,5.69 µM
same,TGI,SK-MEL-2,47 µM
same,CC50,SK-MEL-2; [28],> 100 µM
same,growth at 100 µM,SK-MEL-5,57%
same,LC50,[23],> 100 µM
same,TGI,[23],> 100 µM
same,growth at 0.01 µM,[24],99%
same,GI50,[25],1.93 µM
same,TGI,[25],4.57 µM
same,CC50,[25]; [28],13.9 µM
same,growth at 0.1 µM,[26],95%
same,growth at 100 µM,[27],28%
same,TGI,K562,> 100 µM
same,CC50,K562; [28],> 100 µM
